Experimental data from US9487555B2, “Prodrug of an ice inhibitor” (VERTEX PHARMACEUTICALS INCORPORATED, priority 2000, dated 2016).

Test: Oral pharmacokinetic studies in rats (quantitation of ICE inhibitor in rat plasma by HPLC/MS/MS)
Assay type: in vivo, Male Sprague-Dawley rats
Conditions: for Bioavailability (in words): amount of ICE inhibitor in rat plasma after oral administration, comparison in words; for AUC: male Sprague-Dawley rats, oral 50 mg/kg in 100% propylene glycol, plasma, noncompartmental
Protocol: Applicants studied a number of prodrug ICE inhibitors, including examples listed in the aforementioned WO 99/47545. Bioavailability was determined by quantitating the amount of ICE inhibitor in rat plasma after oral administration, as described below.
Male Sprague-Dawley rats (Harlan, Indianapolis, Ind., 300-350 g) were anesthetized by an intramuscular injection of ketamine/rompun mixture. A PE-50 cannula was inserted in the right carotid artery for arterial blood sampling. The rats were allowed to recover from surgery overnight (16 hours) prior to being used in the study. Test compounds were administered orally at 50 mg/kg 100% propylene glycol (PG) at a dose volume of 10 mL/kg. Blood samples (˜0.30 mL) were removed at 0.25, 0.50, 1.0, 1.5, 2, 3, 4, 6, and 8 hours post-dose, plasma separated by centrifugation and stored at −80° C. pending analysis. Quantification of the plasma samples was conducted using a gradient HPLC/MS/MS similar to the one detailed below: […]
HPLC/MS/MS Method for the Quantitation of ICE Inhibitors in Rat Plasma
1. 100 μl of plasma are aliquotted into Ependorf centrifuge vials.
2. An equal volume of acetonitrile is added to the plasma to precipitate plasma proteins.
3. Samples are vortexed for 2 minutes, and centrifuged at 14,000 rpms for 3 minutes.
4. 100 μl of the supernatant is loaded into 12 mm HPLC liquid sampler vials.
5. A 20 μl addition of […] standard is added to the 100 μl aliquot to monitor variation in instrumental response.
6. 10 μl of sample is injected for analysis via the mass spectrometer.
HPLC Instrumental Parameters
• HPLC: Hewlett Packard HP1100 Binary Solvent Delivery System. HPLC Gradient Conditions • A=H2O 0.2% Formic Acid • B=Acetonitrile 0.2% Formic Acid Mobile Phase
• HPLC Analytical Column: Keystone Phenyl-1 Hypersil 2.0×100 mm, 5μ 120 Å pore pore size, P/N# 105-36-2. • Injection Volume: 10 μl • Flow Rate: 0.20 mL/min. Mass Spectrometry Instrumental Parameters • Instrument: Micromass Quattro Ultima, Tandem Mass Spectrometer • Ionization Technique: Orthogonal spray (ESI) • Polarity: Positive • Dwell Time: 300 msec • Pause Time: 5 msec • Scan time: 0.9 sec • Scan Mode: MRM (Multiple Reaction Monitoring) • Ions/Transitions: For compound I-A m/z509.1-243.1 • For compound II m/z481.1-215.1 Pharmacokinetic Parameters
Pharmacokinetic analysis of these plasma concentration data was conducted using noncompartmental methods. The area under the curve (AUC(0-t)) was estimated from time zero to the last measured time point using the linear trapezoidal rule. The rate of elimination (ke) was estimated by log-linear regression from the terminal phase of the plasma concentration-time curves. Area under the tail of the curve was estimated as the ratio of the last measured concentration to ke. The area under the curve from time zero to infinity (AUC(0-∞)) was obtained by addition of the area under the tail to AUC(0-t). Elimination half-life was estimated as 0.693/ke. The observed values for the peak plasma concentration (Cmax) were recorded.

Bioavailability (in words) | AUC | Compound
unexpectedly improved bioavailability | 11.7 μgXh/mL | CCO[C@@H]1OC(=O)C[C@@H]1NC(=O)[C@@H]1CCCN1C(=O)[C@@H](NC(=O)c1ccc(N)c(Cl)c1)C(C)(C)C [Compound I]
– | 1.35 μgXh/mL | CCOC1OC(=O)C[C@@H]1NC(=O)[C@@H]1CCCN1C(=O)[C@@H](NC(=O)c1nccc2ccccc12)C(C)(C)C (some centres unmarked) [Compound B, reference compound]
poor bioavailability | – | CC(C)(C)C(NC(=O)c1ccc(N)c(Cl)c1)C(=O)N1CCCC1C(=O)NC(C=O)CC(=O)O (centres unmarked) [II]
– | 2.18 μgXh/mL | CCO[C@@H]1OC(=O)C[C@@H]1NC(=O)[C@@H]1CCCN1C(=O)[C@H](C)NC(=O)c1ccc(N)c(Cl)c1 [Compound A, reference compound]
